Data from ChEMBL document CHEMBL4819020, “Discovery of [1,2,4]triazolo[1,5-a]pyrimidines derivatives as potential anticancer agents” (Eur J Med Chem, 2021).

Experiments:
MGC-803 = experiment: Antiproliferative activity against human MGC-803 cells assessed as inhibition of cell proliferation measured after 72 hrs by MTT assay; assay type: functional, cell-based; details: MGC-803, 72 h
MCF7 = experiment: Antiproliferative activity against human MCF7 cells assessed as inhibition of cell proliferation measured after 72 hrs by MTT assay; assay type: functional, cell-based; details: MCF7, 72 h
PC-9 = experiment: Antiproliferative activity against human PC-9 cells assessed as inhibition of cell proliferation measured after 72 hrs by MTT assay; assay type: functional, cell-based; details: PC-9, 72 h
GES1 = experiment: Antiproliferative activity against human GES1 cells assessed as inhibition of cell proliferation measured after 72 hrs by MTT assay; assay type: cell-based; details: GES1, 72 h

Compound | IC50 (MGC-803) | IC50 (MCF7) | IC50 (PC-9) | IC50 (GES1)
Cc1cc(Nc2ccn(Cc3cccc4ccccc34)n2)n2nc(SCc3ccc(Br)cc3)nc2n1 | 3.24 µM | 4.31 µM | 5.66 µM | 30 µM
Cc1cc(Nc2ccn(Cc3ccc(F)cc3)n2)n2nc(SCc3ccc(Br)cc3)nc2n1 | 3.07 µM | 4.28 µM | 19.4 µM | 40.5 µM
Cc1cc(Nc2cc(-c3ccc(F)cc3)[nH]n2)n2nc(SCc3ccc(Br)cc3)nc2n1 | 2.21 µM | 4.57 µM | 6.21 µM | 34.1 µM
O=c1[nH]cc(F)c(=O)[nH]1 [FLUOROURACIL] | – | 5.32 µM | – | 2.45 µM
Cc1ccc(Cn2ccc(Nc3cc(C)nc4nc(SCc5ccc(Br)cc5)nn34)n2)cc1 | 7.42 µM | 11.3 µM | > 50 µM | > 50 µM
Cc1cc(Nc2ccn(Cc3ccccc3)n2)n2nc(SCc3ccc(Br)cc3)nc2n1 | 4.72 µM | 15.8 µM | > 50 µM | 44.4 µM
Cc1cc(Nc2cc(-c3ccccc3)[nH]n2)n2nc(SCc3ccc([N+](=O)[O-])cc3)nc2n1 | 4.25 µM | 5.06 µM | 7.98 µM | 43.6 µM
Cc1cc(Nc2cc(-c3ccccc3)[nH]n2)n2nc(SCc3c(Cl)cccc3Cl)nc2n1 | 5.28 µM | 3.23 µM | 5.18 µM | 39.6 µM
Cc1cc(Nc2cc(-c3ccccc3)[nH]n2)n2nc(SCc3ccc(F)cc3)nc2n1 | 3.27 µM | 4.02 µM | 8.11 µM | 35.5 µM
Cc1cc(Nc2cc(-c3ccccc3)[nH]n2)n2nc(SCC(=O)c3ccccc3)nc2n1 | 2.58 µM | 5.24 µM | 4.45 µM | 33.3 µM
Cc1cc(Nc2cc(-c3ccccc3)[nH]n2)n2nc(SCc3cccc4ccccc34)nc2n1 | 3.12 µM | 7.56 µM | 3.95 µM | 36.3 µM
C#CCSc1nc2nc(C)cc(Nc3cc(-c4ccccc4)[nH]n3)n2n1 | 13.4 µM | 21.8 µM | > 50 µM | 45.7 µM
Cc1cc(Nc2cc(-c3ccccc3)[nH]n2)n2nc(SCC3CC3)nc2n1 | 16.1 µM | > 50 µM | > 50 µM | > 50 µM
CCCCCc1c(C)nc2nc(SCc3ccc(Cl)cc3)nn2c1Nc1cc(-c2ccccc2)[nH]n1 | 7.14 µM | 6.39 µM | > 50 µM | > 50 µM
Cc1cc(Nc2cc(-c3ccccc3)[nH]n2)n2nc(SCc3cc(=O)oc4c3ccc3ccccc34)nc2n1 | 2.07 µM | 4.28 µM | 3.41 µM | 28.6 µM
Cc1cc(Nc2cc(-c3cccs3)[nH]n2)n2nc(SCc3ccc(Br)cc3)nc2n1 | 3.77 µM | 5.37 µM | 4.89 µM | 38.7 µM
Cc1ccc(CSc2nc3nc(C)cc(Nc4cc(-c5ccccc5)[nH]n4)n3n2)cc1 | 6.96 µM | 7.29 µM | 7.31 µM | 36.2 µM
Cc1cc(Nc2cc(-c3ccccc3)[nH]n2)n2nc(SCCc3ccccc3)nc2n1 | 5.62 µM | 2.7 µM | 4.93 µM | 37.4 µM
Cc1cc(Nc2cc(-c3ccccc3)[nH]n2)n2nc(SCc3nc4ccccc4[nH]3)nc2n1 | 1.79 µM | 2.73 µM | 4.84 µM | 27.8 µM

Compound | IC50 (MGC-803) | IC50 (MCF7) | IC50 (PC-9) | IC50 (GES1)
Cc1cc(Nc2cc(-c3ccccc3)[nH]n2)n2nc(SCCCc3ccccc3)nc2n1 | 6.51 µM | 3.9 µM | 5.03 µM | 40.2 µM
COc1ccc(Cn2ccc(Nc3cc(C)nc4nc(SCc5ccc(Br)cc5)nn34)n2)cc1 | 12.6 µM | 14.6 µM | > 50 µM | > 50 µM
Cc1cc(Nc2cc(-c3ccccc3)[nH]n2)n2ncnc2n1 | 21.7 µM | > 50 µM | > 50 µM | > 50 µM
Cc1cc(Nc2ccn(Cc3ccc(C(F)(F)F)cc3)n2)n2nc(SCc3ccc(Br)cc3)nc2n1 | 2.59 µM | 2.28 µM | 5.58 µM | 30.2 µM
Cc1cc(Nc2cc(C(C)(C)C)[nH]n2)n2nc(SCc3ccc(Br)cc3)nc2n1 | 5.62 µM | 7.29 µM | 12.4 µM | > 50 µM
Cc1cc(Nc2cc(-c3ccc(Cl)cc3)[nH]n2)n2nc(SCc3ccc(Br)cc3)nc2n1 | 2.78 µM | 3.62 µM | 4.92 µM | 28.2 µM
Cc1cc(Nc2ccn(Cc3csc4ccc(Cl)cc34)n2)n2nc(SCc3ccc(Br)cc3)nc2n1 | 1.57 µM | 2.57 µM | 4.35 µM | 31.4 µM
Cc1cc(Nc2cc(-c3ccccc3)[nH]n2)n2nc(SCc3csc4ccccc34)nc2n1 | 2.28 µM | 3.47 µM | 4.42 µM | 29.2 µM
Cc1cc(Nc2cc(-c3ccccc3)[nH]n2)n2nc(SCc3ccc(Br)cc3)nc2n1 | 1.11 µM | 2.72 µM | 4.76 µM | 39.3 µM
Cc1cc(Nc2cc(-c3ccccc3)[nH]n2)n2nc(SCc3ccccc3Br)nc2n1 | 3.65 µM | 3.02 µM | 5.63 µM | 41.1 µM
Cc1cc(Nc2cc(-c3ccccc3)[nH]n2)n2nc(SCc3ccc(Cl)cc3)nc2n1 | 3.95 µM | 8.26 µM | 6.71 µM | 31.8 µM
CCCSc1nc2nc(C)cc(Nc3cc(-c4ccccc4)[nH]n3)n2n1 | 12.6 µM | > 50 µM | > 50 µM | > 50 µM
Cc1nc2nc(SCc3ccc(Cl)cc3)nn2c(Nc2cc(-c3ccccc3)[nH]n2)c1C | 9.05 µM | 10.6 µM | > 50 µM | 47.2 µM
Cc1cc(Nc2cc(-c3ccccc3)[nH]n2)n2nc(SCc3ccc(C(F)(F)F)cc3)nc2n1 | 3.52 µM | 4.82 µM | 4.24 µM | 42.7 µM
C=CCSc1nc2nc(C)cc(Nc3cc(-c4ccccc4)[nH]n3)n2n1 | 17.2 µM | > 50 µM | > 50 µM | > 50 µM
Cc1cc(Nc2cc(-c3ccccc3)[nH]n2)n2nc(SCc3cccc(Br)c3)nc2n1 | 4.82 µM | 5.14 µM | 8.9 µM | > 50 µM
Cc1cc(Nc2cc(-c3ccccc3)[nH]n2)n2nc(SCC3CCCCC3)nc2n1 | 12.6 µM | > 50 µM | > 50 µM | > 50 µM
COc1ccc(CSc2nc3nc(C)cc(Nc4cc(-c5ccccc5)[nH]n4)n3n2)cc1 | 3.17 µM | 4.02 µM | 8.11 µM | 28.2 µM
